Laboratory results taken from US20090074815A1, “Immunomodulator Compounds as Vaccine Enhancers” (SCICLONE PHARMACEUTICALS, INC., priority 2005, published 2009).
“And” between values parts separate entries of the source, which are not always exact repeats. Identical values can stand only once. Like-named read-outs stand apart in the source and are kept apart here.

Key:
[1] = tested on: IFN-γ production by ConA-stimulated splenocytes; assay: IFN-γ production by ConA-stimulated splenocytes (EIA); format: in vivo, mice
[2] = tested on: M. tuberculosis strain H37Rv; format: in vivo, mice; details: for CFUs of BCG per ml of Lung Homogenate, MEAN / CFUs of BCG per ml of Lung Homogenate, MEDIAN / CFUs of BCG per ml of Lung Homogenate, individual mice M1-M5: day 61
[3] = tested on: IL-2 production by OvA-stimulated splenocytes; assay: OvA-stimulated production of IL-2 by splenocytes of OvA-immunized mice; details: Mus musculus, Splenocyte, po; for activity at 0.0001 mg/kg: 0.1 μg/kg per os; for activity at 0.001 mg/kg: 1.0 μg/kg per os; for activity at 0.01 mg/kg: 10.0 μg/kg per os
Protocol: The OvA was administered subcutaneously to the crest in a volume of 200 μl. Mice were immunized on day 1 with OvA in complete Freund's adjuvant (CFA; Sigma) and on day 15 with the antigen in incomplete Freund's adjuvant (IFA; Sigma). The immune response was analyzed on day 29. Mice were also immunized with 10 μg/mouse of OvA using Alum as an adjuvant.
Thymuses and spleens from mice of each treatment group were pooled, and then minced with scissors. The minced tissues were suspended in sterile PBS to form cell suspensions, filtered through a double gauze layer and centrifuged. Cells were washed twice with PBS, re-suspended in RPMI-1640 (Sigma) with 2.0 mM of L-glutamine, 50 μM of mercaptoethanol, and 10 μg/ml of gentamycin (complete medium); and cell counts were made. (The splenocyte suspension was washed with a 0.86% solution of NH4Cl to pre-lyse erthrocytes.)
Assessment of Mitogen- and Antigen-Induced Production of Cytokines: Thymic cells (1×10^6/well) in complete medium with 2% FCS were stimulated with ConA (0, 1, and 2 μg/ml). Splenocytes (1×10^6/well) in complete medium with 5% FCS were stimulated with ConA (0, 1, and 5 μg/ml) and with OvA (0-100 μg/ml). […] Supernatants from OvA-stimulated cultures were collected after 72 hours. Supernatants from both cultures were frozen, and kept at 20° C. Concentrations of IL-2, IL-4, IL-10, IL-12R40 and IFNγ in the supernatants were determined by solid-phase EIA with EIA Expansion Kits, available from BD Biosciences (formerly Pharmingen), in accordance with the manufacturer's instructions.

[4] = group 3: BCG + 0.01 μg SCV-07 D1-D5
[5] = group 4: BCG + 0.01 μg SCV-07 D1-D30
[6] = group 5: BCG + 0.01 μg SCV-07 D1-5, D7, 11, 14, 18, 21, 25, 28
[7] = group 6: BCG + 0.01 μg SCV-07 D6-D30
[8] = group 7: BCG + 0.20 μg SCV-07 D1-D5
[9] = group 8: BCG + 0.20 μg SCV-07 D1-D30
[10] = group 9: BCG + 0.20 μg SCV-07 D1-5, D7, 11, 14, 18, 21, 25, 28
[11] = group 10: BCG + 0.20 μg SCV-07 D6-D30
[12] = group 11: BCG + 2.0 μg SCV-07 D1-D5
[13] = group 12: BCG + 2.0 μg SCV-07 D1-D30
[14] = group 13: BCG + 2.0 μg SCV-07 D1-5, D7, 11, 14, 18, 21, 25, 28
[15] = group 14: BCG + 2.0 μg SCV-07 D6-D30
[16] = read-out: Production of IL-2 by splenocytes, % (% of control), OvA/Alum, OvA 0 μg/ml
[17] = read-out: Production of IL-2 by splenocytes, % (% of control), OvA/Alum, OvA 1 μg/ml
[18] = read-out: Production of IL-2 by splenocytes, % (% of control), OvA/Alum, OvA 10 μg/ml
[19] = read-out: Production of IL-2 by splenocytes, % (% of control), OvA/Alum, OvA 25 μg/ml
[20] = read-out: Production of IL-2 by splenocytes, % (% of control), OvA/Alum, OvA 100 μg/ml

N[C@H](CCC(=O)N[C@@H](Cc1c[nH]c2ccccc12)C(=O)O)C(=O)O [SCV-07, γ-D-glutamyl-L-tryptophan]
IFN-γ ([1]; ConA 1 μg/ml, 0.01 μg/kg per os): 15499 pg/mL
IFN-γ ([1]; ConA 1 μg/ml, 0.1 μg/kg i/p): 13089 pg/mL
IFN-γ ([1]; ConA 1 μg/ml, 0.1 μg/kg per os): 15695 pg/mL
IFN-γ ([1]; ConA 1 μg/ml, 1.0 μg/kg i/p): 30951 pg/mL
IFN-γ ([1]; ConA 1 μg/ml, 1.0 μg/kg per os): 11411 pg/mL
IFN-γ ([1]; ConA 1 μg/ml, 10.0 μg/kg per os): 8238 pg/mL
IFN-γ ([1]; ConA 1 μg/ml, 100.0 μg/kg per os): 12990 pg/mL
IFN-γ ([1]; ConA 5 μg/ml, 0.01 μg/kg per os): 63227 pg/mL
IFN-γ ([1]; ConA 5 μg/ml, 0.1 μg/kg i/p): 87051 pg/mL
IFN-γ ([1]; ConA 5 μg/ml, 0.1 μg/kg per os): 65692 pg/mL
IFN-γ ([1]; ConA 5 μg/ml, 1.0 μg/kg i/p): 142155 pg/mL
IFN-γ ([1]; ConA 5 μg/ml, 1.0 μg/kg per os): 47683 pg/mL
IFN-γ ([1]; ConA 5 μg/ml, 10.0 μg/kg per os): 66185 pg/mL
IFN-γ ([1]; ConA 5 μg/ml, 100.0 μg/kg per os): 43670 pg/mL
IFN-γ ([1]; Spontaneous, 0.01 μg/kg per os): 0 pg/mL
IFN-γ ([1]; Spontaneous, 0.1 μg/kg i/p): 1393 pg/mL
IFN-γ ([1]; Spontaneous, 0.1 μg/kg per os): 0 pg/mL
IFN-γ ([1]; Spontaneous, 1.0 μg/kg i/p): 1738 pg/mL
IFN-γ ([1]; Spontaneous, 1.0 μg/kg per os): 1629 pg/mL
IFN-γ ([1]; Spontaneous, 10.0 μg/kg per os): 0 pg/mL
IFN-γ ([1]; Spontaneous, 100.0 μg/kg per os): 0 pg/mL
dose with optimal enhancing effect of SCV-07 for vaccination with BCG ([2]; about 8-10 μg/kg): 0.20 µg
CFUs of BCG per ml of Lung Homogenate, MEAN [2, 4]: 5.0 log10 CFU per milliliter
CFUs of BCG per ml of Lung Homogenate, MEDIAN [2, 4]: 4.9 log10 CFU per milliliter
CFUs of BCG per ml of Lung Homogenate, individual mice M1-M5 [2, 4]: 4.8 log10 CFU per milliliter (2×) and 5.3 log10 CFU per milliliter (2×) and 4.9 log10 CFU per milliliter
CFUs of BCG per ml of Lung Homogenate, MEAN [2, 5]: 4.8 log10 CFU per milliliter
CFUs of BCG per ml of Lung Homogenate, MEDIAN [2, 5]: 4.9 log10 CFU per milliliter
CFUs of BCG per ml of Lung Homogenate, individual mice M1-M5 [2, 5]: 5.1 log10 CFU per milliliter and 4.8 log10 CFU per milliliter and 5.0 log10 CFU per milliliter and 4.3 log10 CFU per milliliter
CFUs of BCG per ml of Lung Homogenate, MEAN [2, 6]: 4.9 log10 CFU per milliliter
CFUs of BCG per ml of Lung Homogenate, MEDIAN [2, 6]: 5.0 log10 CFU per milliliter
CFUs of BCG per ml of Lung Homogenate, individual mice M1-M5 [2, 6]: 5.1 log10 CFU per milliliter (2×) and 5.0 log10 CFU per milliliter and 4.6 log10 CFU per milliliter and 4.8 log10 CFU per milliliter
CFUs of BCG per ml of Lung Homogenate, MEAN [2, 7]: 5.5 log10 CFU per milliliter
CFUs of BCG per ml of Lung Homogenate, MEDIAN [2, 7]: 5.5 log10 CFU per milliliter
CFUs of BCG per ml of Lung Homogenate, individual mice M1-M5 [2, 7]: 5.4 log10 CFU per milliliter and 5.5 log10 CFU per milliliter (2×) and 5.7 log10 CFU per milliliter
CFUs of BCG per ml of Lung Homogenate, MEAN [2, 8]: 4.9 log10 CFU per milliliter
CFUs of BCG per ml of Lung Homogenate, MEDIAN [2, 8]: 5.0 log10 CFU per milliliter
CFUs of BCG per ml of Lung Homogenate, individual mice M1-M5 [2, 8]: 4.8 log10 CFU per milliliter (2×) and 5.0 log10 CFU per milliliter (2×) and 5.1 log10 CFU per milliliter
CFUs of BCG per ml of Lung Homogenate, MEAN [2, 9]: 4.6 log10 CFU per milliliter
CFUs of BCG per ml of Lung Homogenate, MEDIAN [2, 9]: 4.6 log10 CFU per milliliter
CFUs of BCG per ml of Lung Homogenate, individual mice M1-M5 [2, 9]: 4.5 log10 CFU per milliliter and 4.7 log10 CFU per milliliter (2×) and 4.6 log10 CFU per milliliter
CFUs of BCG per ml of Lung Homogenate, MEAN [2, 10]: 4.8 log10 CFU per milliliter
CFUs of BCG per ml of Lung Homogenate, MEDIAN [2, 10]: 4.8 log10 CFU per milliliter
CFUs of BCG per ml of Lung Homogenate, individual mice M1-M5 [2, 10]: 4.6 log10 CFU per milliliter and 4.4 log10 CFU per milliliter and 4.9 log10 CFU per milliliter and 5.1 log10 CFU per milliliter and 4.8 log10 CFU per milliliter
CFUs of BCG per ml of Lung Homogenate, MEAN [2, 11]: 5.3 log10 CFU per milliliter
CFUs of BCG per ml of Lung Homogenate, MEDIAN [2, 11]: 5.3 log10 CFU per milliliter
CFUs of BCG per ml of Lung Homogenate, individual mice M1-M5 [2, 11]: 5.4 log10 CFU per milliliter and 5.2 log10 CFU per milliliter
CFUs of BCG per ml of Lung Homogenate, MEAN [2, 12]: 5.0 log10 CFU per milliliter
CFUs of BCG per ml of Lung Homogenate, MEDIAN [2, 12]: 5.1 log10 CFU per milliliter
CFUs of BCG per ml of Lung Homogenate, individual mice M1-M5 [2, 12]: 5.1 log10 CFU per milliliter (3×) and 4.8 log10 CFU per milliliter (2×)
CFUs of BCG per ml of Lung Homogenate, MEAN [2, 13]: 5.0 log10 CFU per milliliter
CFUs of BCG per ml of Lung Homogenate, MEDIAN [2, 13]: 5.1 log10 CFU per milliliter
CFUs of BCG per ml of Lung Homogenate, individual mice M1-M5 [2, 13]: 5.1 log10 CFU per milliliter and 4.8 log10 CFU per milliliter and 5.3 log10 CFU per milliliter (2×) and 4.6 log10 CFU per milliliter
CFUs of BCG per ml of Lung Homogenate, MEAN [2, 14]: 4.9 log10 CFU per milliliter
CFUs of BCG per ml of Lung Homogenate, MEDIAN [2, 14]: 4.8 log10 CFU per milliliter
CFUs of BCG per ml of Lung Homogenate, individual mice M1-M5 [2, 14]: 4.8 log10 CFU per milliliter (2×) and 4.7 log10 CFU per milliliter and 5.1 log10 CFU per milliliter and 5.3 log10 CFU per milliliter
CFUs of BCG per ml of Lung Homogenate, MEAN [2, 15]: 5.4 log10 CFU per milliliter
CFUs of BCG per ml of Lung Homogenate, MEDIAN [2, 15]: 5.4 log10 CFU per milliliter
CFUs of BCG per ml of Lung Homogenate, individual mice M1-M5 [2, 15]: 5.3 log10 CFU per milliliter (2×) and 5.4 log10 CFU per milliliter and 5.5 log10 CFU per milliliter
activity at 0.0001 mg/kg [3, 16]: 100%
activity at 0.0001 mg/kg [3, 17]: 94.3%
activity at 0.0001 mg/kg [3, 18]: 72%
activity at 0.0001 mg/kg [3, 19]: 148%
activity at 0.0001 mg/kg [3, 20]: 52.5%
activity at 0.001 mg/kg [3, 16]: 100%
activity at 0.001 mg/kg [3, 17]: 57.7%
activity at 0.001 mg/kg [3, 18]: 113%
activity at 0.001 mg/kg [3, 19]: 75.4%
activity at 0.001 mg/kg [3, 20]: 74.7%
activity at 0.01 mg/kg [3, 16]: 100%
activity at 0.01 mg/kg [3, 17]: 191%
activity at 0.01 mg/kg [3, 18]: 87.2%
activity at 0.01 mg/kg [3, 19]: 75.6%
activity at 0.01 mg/kg [3, 20]: 104%
activity at 0.0001 mg/kg ([3]; read-out: Production of IL-2 by splenocytes, % (% of control), OvA/FA, OvA 0 μg/ml): 100%
activity at 0.0001 mg/kg ([3]; read-out: Production of IL-2 by splenocytes, % (% of control), OvA/FA, OvA 1 μg/ml): 32.4%
activity at 0.0001 mg/kg ([3]; read-out: Production of IL-2 by splenocytes, % (% of control), OvA/FA, OvA 10 μg/ml): 43.9%
activity at 0.0001 mg/kg ([3]; read-out: Production of IL-2 by splenocytes, % (% of control), OvA/FA, OvA 25 μg/ml): 119%
